These results are taken from patent US20220265629A1, “TREATMENT OF SYSTOLIC DYSFUNCTION AND HEART FAILURE WITH REDUCED EJECTION FRACTION WITH THE COMPOUND (R)-4-(1-((3-(DIFLUOROMETHYL)-1-METHYL-1H-PYRAZOL-4-YL)SULFONYL)-1-FLUOROETHYL)-N-(ISOXAZOL-3-YL)PIPERIDINE-1-CARBOXAMIDE” (MyoKardia, Inc., priority 2019, published 2022).

The nature of series [1]: Single ascending oral dose study in healthy volunteers: urinary excretion and renal clearance. Conditions: for CL renal: human, plasma and urine. It is filed as in vivo, human. How it is done:
The concentrations of Compound I in human plasma and urine were quantitated by high performance liquid chromatography with tandem mass spectrometric detection (LC MS/MS) (Biological sample analysis study report Alturas AD17-726). Plasma samples were extracted by protein precipitation with acetonitrile containing internal standard MYK-5654. The calibration curves were linear over concentration range of 0.500 to 1000 ng/mL with a lower limit of quantification (LLOQ) of 0.500 ng/mL.
The PK Population included all subjects who received Compound I. Blood samples were collected for PK assessments. The actual timing of the samples may have been modified and/or up to an additional 2 samples may have been requested by the SRC after review of the data from previous cohorts. It was important that PK sampling occurred as closely as possible to the scheduled time (±10%). Both blood and urine samples were used for PK assessments.

Series [2] is described as follows: Unbound (free) fraction in plasma. In kind it is in vitro ADME.

Each structure is given as a SMILES string. Where two headings read alike, the source gives them in different places.

For the compound `Cn1cc(S(=O)(=O)[C@@](C)(F)C2CCN(C(=O)Nc3ccon3)CC2)c(C(F)F)n1` [Compound I, (R)-4-(1-((3-(difluoromethyl)-1-methyl-1H-pyrazol-4-yl)sulfonyl)-1-fluoroethyl)-N-(isoxazol-3-yl)piperidine-1-carboxamide], the “dose recovered in 0-48 hours urine” value is on record as “approximately 6.0%” in series [1] (350 mg) and roughly 8.6% in series [1] (525 mg). Further, the CL renal in series [1] (oral, all doses, read-out: renal clearance, mean (converted)) was 9.5 mL/min; in series [1] (po, 350 mg, 350 mg dose group, read-out: renal clearance, mean (SD) (converted)), 5.55 mL/min; in series [1] (po, 525 mg, 525 mg dose group, read-out: renal clearance, mean (SD) (converted)), 13.3 mL/min; in series [1] (po, all doses, read-out: renal clearance, individuals range), 2.95 to 23.3 mL/min; in series [1] (po, all doses, read-out: renal clearance, mean (converted)) it was roughly 9.5 mL/min. Also, the fraction unbound in series [2] (dog, Dog plasma, read-out: fup (Dog), unbound fraction in plasma) was 0.416; in series [2] (human, Human plasma, 0.1 to 10 μM, read-out: fup (Human), unbound fraction in plasma) it was 0.144 to 0.164; in series [2] (human, read-out: fu, free fraction of Compound I in plasma) it was 0.14 to 0.18.
